Reference: paper PMC6131501, “Urate transporter inhibitor lesinurad is a selective peroxisome proliferator-activated receptor gamma modulator (sPPARγM) in vitro” (Scientific Reports, 2018)
Values joined by “and” are separate entries in the source; they are usually repeats but may differ in a detail not shown here. Equal values may be shown once.

Key:
PPARα = target: T1, PPARα (Homo sapiens, UniProt Q07869); test: Gal4 hybrid reporter gene assay PPARα; assay type: cell-based
T1 construct: expressed in transfected cells; host or cells: HEK293T
T1 sequence (Q07869 239-466 limits assumed): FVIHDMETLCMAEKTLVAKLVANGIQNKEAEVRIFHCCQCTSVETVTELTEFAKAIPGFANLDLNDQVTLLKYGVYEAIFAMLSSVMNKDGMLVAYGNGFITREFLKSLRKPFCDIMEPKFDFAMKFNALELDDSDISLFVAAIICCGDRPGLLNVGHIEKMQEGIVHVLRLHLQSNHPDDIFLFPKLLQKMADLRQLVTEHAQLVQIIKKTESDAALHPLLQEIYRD
Source text: (§1) These in vitro test systems are based on a constitutively expressed hybrid receptor composed of the ligand binding domain of the respective human nuclear receptor and the DNA binding domain of the yeast receptor Gal4. A Gal4-inducible firefly luciferase serves as reporter gene and a constitutively expressed renilla luciferase is used for normalization of transfection efficacy and internal toxicity control[18],[19]. […] The Gal4-fusion receptor plasmids pFA-CMV-hPPARα-LBD[50], pFA-CMV-hPPARγ-LBD[50], pFA-CMV-hPPARδ-LBD[50], pFA-CMV-hLXRα-LBD[51], pFA-CMV-hLXRβ-LBD[51], pFA-CMV-hRXRα-LBD[52], pFA-CMV-hRXRβ-LBD[52], pFA-CMV-hRXRγ-LBD[52], pFA-CMV-hRARα-LBD[52], pFA-CMV-hRARβ-LBD[52], pFA-CMV-hRARγ-LBD[52], pFA-CMV-hFXR-LBD[53], pFA-CMV-hVDR-LBD[52], pFA-CMV-hCAR-LBD[52] and pFA-CMV-hPXR-LBD[52] coding for the hinge region and ligand binding domain (LBD) of the canonical isoform of the respective nuclear receptor have been reported previously. pFR-Luc (Stratagene) was used as reporter plasmid and pRL-SV40 (Promega) for normalization of transfection efficiency and cell growth.
(§2) HEK293T cells were grown in DMEM high glucose, supplemented with 10% FCS, sodium pyruvate (1 mM), penicillin (100 U/mL) and streptomycin (100 μg/mL) at 37 °C and 5% CO2. The day before transfection, HEK293T cells were seeded in 96-well plates (3·10^4 cells/well). Before transfection, medium was changed to Opti-MEM without supplements. Transient transfection was carried out using Lipofectamine LTX reagent (Invitrogen) according to the manufacturer’s protocol with pFR-Luc (Stratagene), pRL-SV40 (Promega) and the corresponding Gal4-fusion nuclear receptor plasmid. 5 h after transfection, medium was changed to Opti-MEM supplemented with penicillin (100 U/mL), streptomycin (100 μg/mL), now additionally containing 0.1% DMSO and the respective test compound or 0.1% DMSO alone as untreated control. Each concentration was tested in duplicates and each experiment was repeated independently at least three times. Following overnight (12-14 h) incubation with the test compounds, cells were assayed for luciferase activity using Dual-Glo™ Luciferase Assay System (Promega) according to the manufacturer’s protocol. Luminescence was measured with an Infinite M200 luminometer (Tecan Deutschland GmbH). […] Fold activation was obtained by dividing the mean RLU of a test compound at a respective concentration by the mean RLU of untreated control.

PPARγ [1] = target: T2, PPARγ (Homo sapiens, UniProt P37231); test: Gal4 hybrid reporter gene assay PPARγ; assay type: cell-based
T2 construct: expressed in transfected cells; host or cells: HEK293T
T2 sequence (P37231 238-503 limits assumed): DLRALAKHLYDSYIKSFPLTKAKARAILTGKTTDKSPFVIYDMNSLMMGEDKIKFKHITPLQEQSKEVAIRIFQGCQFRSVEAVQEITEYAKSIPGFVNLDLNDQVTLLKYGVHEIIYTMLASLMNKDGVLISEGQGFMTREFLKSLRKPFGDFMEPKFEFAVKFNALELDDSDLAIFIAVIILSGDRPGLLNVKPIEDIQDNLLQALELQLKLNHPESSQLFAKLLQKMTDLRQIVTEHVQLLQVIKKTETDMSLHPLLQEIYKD
Source text: as §1, §2

[2] = target: T3, recombinant PPARγ ligand binding domain (Homo sapiens, UniProt P37231); test: Isothermal titration calorimetry (ITC)
T3 sequence (P37231 238-503 limits assumed): T2 sequence (P37231 238-503 limits assumed)
Experimental: To confirm direct modulation of PPARγ by lesinurad, we analyzed their interaction by isothermal titration calorimetry (ITC). Due to limited solubility of lesinurad, recombinant PPARγ ligand binding domain (LBD) protein was (reversely) titrated to the drug.
Isothermal titration calorimetry (ITC) was conducted on an Affinity ITC (TA Instruments Affinity ITC). Recombinant PPARγ ligand binding domain protein (138 μM) and lesinurad (40 μM) were each dissolved in a HEPES buffer (25 mM; adjusted to pH 7.5 with KOH; further containing 150 mM KF, 10% glycerol (w/w), 1% DMSO (v/v) and 5 mM DTT). The ITC instrument was adjusted to a temperature of 25 °C and the stirring rate was set at 75 rpm. 190 μL lesinurad solution were filled into the reaction cell and PPARγ ligand binding domain solution was titrated in 41 injections. […] An interval of 200 s was maintained between individual injections. The heats of dilution resulting from titrating PPARγ ligand binding domain protein solution into the buffer solution were recorded in an additional ITC run and subtracted from the raw ITC data obtained for lesinurad.
ITC raw data was analyzed using NanoAnalyze software package (version 3.7.5). An independent binding model was used to fit the reaction enthalpy (ΔH), binding affinity constant (Kd), and stoichiometry (n). Free energy change (ΔG) was calculated from the equation ΔG = −RT ln K and the entropy (ΔS) was calculated from ΔG = ΔH−TΔS.

PPARγ [3] = tested on: PPARγ; design: method as in PMID 27716403; details: up to 100 μM; non-human cell line overexpressing PPARγ; cited from earlier work
[4] = Gal4 hybrid reporter, HEK293T, 12-14 h, mean ± SEM, at least three experiments

## O=C(O)CSc1nnc(Br)n1-c1ccc(C2CC2)c2ccccc12 [lesinurad]
PPARα; 30 μM, compared with PPARγ
  Gal4-PPARα transactivation: lower efficacy
PPARα; [4]
  EC50: 20.8 ± 0.7 µM
PPARα; vs. 1 µM of PPARα agonist GW7647
  PPARα activation efficacy: 13.5 ± 0.5%
PPARγ [1]; 30 μM
  Gal4-PPARγ transactivation: robustly transactivated
PPARγ [1]; [4]
  EC50: 18.5 ± 0.7 µM
[2]; 25 °C, PPARγ LBD titrated to drug, independent binding model
  Kd: 1300 nM
[2]; 25 °C, calculated from ΔG = ΔH−TΔS
  ΔS: 27 J/mol·K and 26,99 J/mol·K
[2]; value printed in the picture of Fig. 4
  n (stoichiometry): 0,987
PPARγ [3]
  PPARγ activation reported by Miner et al.: does not activate PPARγ
